Experimental data as given in ChEMBL document CHEMBL3044964, “Synthesis of novel imidazo[2,1-b][1,3,4]thiadiazoles appended to sydnone as anticancer agents” (Med Chem Res, 2013).
In brackets after ≈: the same amount, converted by molar mass. Activity calls are given as the source filed them. The calls are words filed in the database; no cut-off is given here.

How the values were obtained:
HT-29 = experiment: Cytotoxicity against Homo sapiens (human) HT-29 cells by SRB assay; type: functional
Escherichia coli [1] = experiment: Toxicity in wild type Escherichia coli AB1157 assessed as growth inhibition after 24 hr by agar well diffusion method; type: organism-based; details: in vivo
Escherichia coli [2] = experiment: Toxicity in wild type Escherichia coli AB1157 assessed as growth inhibition at 2000 ug after 24 hr by agar well diffusion method; type: organism-based; details: in vivo
Escherichia coli [3] = experiment: Toxicity in wild type Escherichia coli AB1157 assessed as growth inhibition at 1000 ug after 24 hr by agar well diffusion method; type: organism-based; details: in vivo
Escherichia coli [4] = experiment: Toxicity in wild type Escherichia coli AB1157 assessed as growth inhibition at 500 ug after 24 hr by agar well diffusion method; type: organism-based; details: in vivo
Escherichia coli [5] = experiment: Toxicity in wild type Escherichia coli AB1157 assessed as growth inhibition at 250 ug after 24 hr by agar well diffusion method; type: organism-based; details: in vivo
Escherichia coli [6] = experiment: Toxicity in wild type Escherichia coli AB1157 assessed as growth inhibition at 125 ug after 24 hr by agar well diffusion method; type: organism-based; details: in vivo
Escherichia coli [7] = experiment: Induction of Escherichia coli DNA cleavage at 25 mg after 2 hr by agarose gel electrophoresis

Compound | GI50 (HT-29) | LC50 (HT-29) | TGI (HT-29) | MIC (Escherichia coli [1]) | diameter of the inhibition zone (DIZ) (Escherichia coli [2]) | diameter of the inhibition zone (DIZ) (Escherichia coli [3]) | diameter of the inhibition zone (DIZ) (Escherichia coli [4]) | diameter of the inhibition zone (DIZ) (Escherichia coli [5]) | growth inhibition (GI) (Escherichia coli [6]) | Activity (Escherichia coli [7])
COc1ccc(-n2n[o+]c([O-])c2-c2nn3cc(-c4cc5cc(Cl)ccc5oc4=O)nc3s2)cc1 | 3.68 µg/mL (≈ 7.45 µM) | > 70 µg/mL | < 30 µg/mL | 1 mg | 0.8 cm | 0.5 cm | 0 cm | 0 cm | Non-toxic | –
O=c1oc2ccc(Cl)cc2cc1-c1cn2nc(-c3c([O-])[o+]nn3-c3ccc(Cl)cc3)sc2n1 | 8 µg/mL (≈ 16.1 µM) | > 80 µg/mL | > 40 µg/mL | > 2 mg | 0 cm | 0 cm | 0 cm | 0 cm | Non-toxic | Active
COc1ccc(-n2n[o+]c([O-])c2-c2nn3cc(-c4cc5cc(Br)ccc5oc4=O)nc3s2)cc1 | 3.04 µg/mL (≈ 5.65 µM) | > 80 µg/mL | < 30 µg/mL | 1 mg | 0.8 cm | 0.5 cm | 0 cm | 0 cm | Non-toxic | –
Cc1ccc(-n2n[o+]c([O-])c2-c2nn3cc(-c4cc5cc(Cl)ccc5oc4=O)nc3s2)cc1 | 7.9 µg/mL (≈ 16.5 µM) | > 80 µg/mL | > 40 µg/mL | > 2 mg | 0 cm | 0 cm | 0 cm | 0 cm | Non-toxic | Active
O=c1oc2ccc(Br)cc2cc1-c1cn2nc(-c3c([O-])[o+]nn3-c3ccc(Cl)cc3)sc2n1 | 5.25 µg/mL (≈ 9.67 µM) | > 70 µg/mL | > 40 µg/mL | > 2 mg | 0 cm | 0 cm | 0 cm | 0 cm | Non-toxic | –
STANNOUS CHLORIDE | – | – | – | 0.25 mg | 1.5 cm | 0.8 cm | 0.5 cm | 0.3 cm | Non-toxic | –
Cc1ccc(-n2n[o+]c([O-])c2-c2nn3cc(-c4cc5cc(Br)ccc5oc4=O)nc3s2)cc1 | 6.1 µg/mL (≈ 11.7 µM) | > 70 µg/mL | > 30 µg/mL | > 2 mg | 0 cm | 0 cm | 0 cm | 0 cm | Non-toxic | –
COc1ccc(-n2n[o+]c([O-])c2-c2nn3cc(-c4cc5ccccc5oc4=O)nc3s2)cc1 | 3.14 µg/mL (≈ 6.83 µM) | > 70 µg/mL | < 30 µg/mL | 1 mg | 0.8 cm | 0.5 cm | 0 cm | 0 cm | Non-toxic | –
O=c1oc2ccc(Cl)cc2cc1-c1cn2nc(-c3c([O-])[o+]nn3-c3ccccc3)sc2n1 | 7.7 µg/mL (≈ 16.6 µM) | > 80 µg/mL | > 40 µg/mL | > 2 mg | 0 cm | 0 cm | 0 cm | 0 cm | Non-toxic | –
Cc1ccc(-n2n[o+]c([O-])c2-c2nn3cc(-c4cc5ccccc5oc4=O)nc3s2)cc1 | 4.23 µg/mL (≈ 9.54 µM) | > 80 µg/mL | < 30 µg/mL | > 2 mg | 0 cm | 0 cm | 0 cm | 0 cm | Non-toxic | –
O=c1oc2ccccc2cc1-c1cn2nc(-c3c([O-])[o+]nn3-c3ccc(Cl)cc3)sc2n1 | 4 µg/mL (≈ 8.62 µM) | > 80 µg/mL | < 30 µg/mL | > 2 mg | 0 cm | 0 cm | 0 cm | 0 cm | Non-toxic | Active
O=c1oc2ccc(Br)cc2cc1-c1cn2nc(-c3c([O-])[o+]nn3-c3ccccc3)sc2n1 | 5.6 µg/mL (≈ 11 µM) | > 70 µg/mL | > 30 µg/mL | > 2 mg | 0 cm | 0 cm | 0 cm | 0 cm | Non-toxic | –
O=c1oc2ccccc2cc1-c1cn2nc(-c3c([O-])[o+]nn3-c3ccccc3)sc2n1 | 6.3 µg/mL (≈ 14.7 µM) | > 70 µg/mL | > 30 µg/mL | > 2 mg | 0 cm | 0 cm | 0 cm | 0 cm | Non-toxic | –
